Laboratory results from ChEMBL document CHEMBL1142693, “Design, synthesis, and in vitro evaluation of dipeptide-based antibody minor groove binder conjugates” (J Med Chem, 2005).
pIC50: −log10 of the molar value.

How the values were obtained:
CAKI-1 [1] = experiment: Inhibitory concentration againstHuman Caki-1 Renal CellCarcinoma Cell Lines (CD70+) at 96th hour; n=1; type: functional, cell-based; conditions: Homo sapiens
[2] = Inhibitory concentration againstHuman Karpas 299 Anaplastic Large Cell Lymphoma (CD30+) at 96th hour; n=9; type: functional, Homo sapiens
[3] = Inhibitory concentration againstHuman Karpas 299 Anaplastic Large Cell Lymphoma (CD30+) at 4th hour; n=1; type: functional, Homo sapiens
NCI-H69 = experiment: Inhibitory concentration againstHuman cell lung carcinoma cell line NCI-H69; n=3; type: functional, cell-based, Homo sapiens
[4] = Inhibitory concentration againstHuman cell lung carcinoma cell line NCI-H69/LX4; n=3; type: functional, cell-based, Homo sapiens
CAKI-1 [5] = experiment: Inhibitory concentration againstHuman Caki-1 Renal CellCarcinoma Cell Lines (CD70+) at 4th hour; n=1; type: functional, cell-based; conditions: Homo sapiens
CAKI-1 [6] = experiment: Inhibitory concentration againstHuman Caki-1 Renal CellCarcinoma Cell Lines (CD70+) at 96th hour; n=14; type: functional, cell-based; conditions: Homo sapiens
[7] = Inhibitory concentration againstHuman Karpas 299 Anaplastic Large Cell Lymphoma (CD30+) at 96th hour; n=39; type: functional, Homo sapiens
[8] = Inhibitory concentration againstHuman Karpas 299 Anaplastic Large Cell Lymphoma (CD30+) at 96th hour; n=1; type: functional, Homo sapiens

Row | Compound | pIC50 (CAKI-1 [1]) | pIC50 [3] | pIC50 (NCI-H69; Homo sapiens, NCI-H69) | pIC50 [4] | pIC50 (CAKI-1 [5]) | other results
1 | COc1ccc(/C=C/C(=O)N2CC(CCl)c3c2cc(N)c2ccccc32)cc1 (stereo not given) | 9.17 | 9.47 | 9.06 | 8.54 | 9.23 | pIC50 [2]: 8.93
2 | COc1ccc(/C=C/C(=O)N2CC(CCl)c3c2cc(NC(=O)C(CCCCN)NC(=O)C(NC(=O)CCOCCOCCOCCOCCNC(=O)CBr)C(C)C)c2ccccc32)cc1 (stereo not given) |  |  | 7.87 | 7.68 |  | 
3 | CO[C@@]12[C@H](COC(N)=O)C3=C(C(=O)C(C)=C(N)C3=O)N1C[C@@H]1N[C@@H]12 [MITOMYCIN] |  | 6.28 |  |  | 6.60 | pIC50 (CAKI-1 [6]): 7.40; pIC50 [7]: 6.88
4 | COc1cccc2c1C(=O)c1c(O)c3c(c(O)c1C2=O)C[C@@](O)(C(=O)CO)C[C@@H]3O[C@H]1C[C@H](N)[C@H](O)[C@H](C)O1 [DOXORUBICIN] |  |  | 7.95 | 5.74 |  | 
5 | CISPLATIN |  |  |  | 5.55 |  | pIC50 (NCI-H69; nci-h69): 6.17
6 | COc1cc2c(c(OC)c1OC)NC(C(=O)N1CC(CCl)c3c1cc(O)c1ncccc31)C2 (stereo not given) | 9.35 | 9.55 |  |  | 9.26 | pIC50 [8]: 9.74
